Source: US6582947B1, “Medical use of gene and vector encoding a multisubstrate deoxyribonucleoside kinase” (BIO VICI, priority 1998, dated 2003)
Like-named read-outs stand apart in the source and are kept apart here.

Key:
[1] = biological target: T1, HSV-1 TK (Human herpesvirus 1, UniProt P0DTH5)
Experimental: (§1) The competion experiments were carried out in the following way: The standard reaction mixture contained 2.5 mM MgCl2, 10 mM dithio threitol, 1 mg/ml bovine serum albumin, 2.5 mM ATP, 10 mM NaF, 2 μM methyl-^3H-thymidine, an appropriate amount of a nucleoside analog and the multisubstrate deoxyribonucleoside kinase in an amount resulting in a linear conversion of the substrate, in a total reaction mixture of 50 μl of 50 mM Tris-HCl, pH 8.0. The reaction mixture was incubated at 37° C. for 30 min, and the reaction was terminated by spotting on to DE-81 discs (Whatman). The discs were instantly immersed and washed in ethanol (70%). The filters were dried and assayed for radioactivity in a tuluene-based scintillant.

[2] = system: HSV-TK; conditions: cited from earlier work
[3] = biological target: T2, deoxyguanosine kinase (Homo sapiens, UniProt Q16854); conditions: cited from earlier work
T2 sequence (Q16854 40-277): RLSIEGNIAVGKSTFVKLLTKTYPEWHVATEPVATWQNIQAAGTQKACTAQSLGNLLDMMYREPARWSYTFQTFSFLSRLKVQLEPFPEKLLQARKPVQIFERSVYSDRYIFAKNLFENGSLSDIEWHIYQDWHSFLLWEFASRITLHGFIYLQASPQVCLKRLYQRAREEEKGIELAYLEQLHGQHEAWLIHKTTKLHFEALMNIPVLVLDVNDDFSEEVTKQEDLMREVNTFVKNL

[4] = biological target: T1, HSV-1 TK; assay: biochemical
Experimental: as §1

[5] = biological target: T3, recombinant Dm-dNK (Drosophila melanogaster, UniProt Q9XZT6); assay: Phosphoryl transfer assay, substrate specificity of recombinant Dm-dNK; conditions: naturally occurring nucleosides
T3 sequence (Q9XZT6 1-250): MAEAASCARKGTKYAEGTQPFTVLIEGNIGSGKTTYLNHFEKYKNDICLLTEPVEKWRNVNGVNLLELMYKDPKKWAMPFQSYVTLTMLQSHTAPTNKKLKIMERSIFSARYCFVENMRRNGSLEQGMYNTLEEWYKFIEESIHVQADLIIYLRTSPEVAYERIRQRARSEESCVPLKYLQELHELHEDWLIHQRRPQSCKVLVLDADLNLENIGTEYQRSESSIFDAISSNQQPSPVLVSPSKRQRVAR
Experimental: A phosphor transferase assay was used to determine the substrate specificity of the putative deoxyribonucleoside kinase. […] The samples were incubated 30 min at 37° C. 2 μl of the reaction mixtures were spotted on poly(ethyleneimine) cellulose F thin layer chromatography sheets (Merck Inc.) and the nucleotide separated in a buffer containing NH4OH:isobutyric acid:dH2O (1:66:33). The sheets were autoradiographed using phosphoimaging plates (BAS 1000, Fujix).

T1 sequence (P0DTH5 whole entry): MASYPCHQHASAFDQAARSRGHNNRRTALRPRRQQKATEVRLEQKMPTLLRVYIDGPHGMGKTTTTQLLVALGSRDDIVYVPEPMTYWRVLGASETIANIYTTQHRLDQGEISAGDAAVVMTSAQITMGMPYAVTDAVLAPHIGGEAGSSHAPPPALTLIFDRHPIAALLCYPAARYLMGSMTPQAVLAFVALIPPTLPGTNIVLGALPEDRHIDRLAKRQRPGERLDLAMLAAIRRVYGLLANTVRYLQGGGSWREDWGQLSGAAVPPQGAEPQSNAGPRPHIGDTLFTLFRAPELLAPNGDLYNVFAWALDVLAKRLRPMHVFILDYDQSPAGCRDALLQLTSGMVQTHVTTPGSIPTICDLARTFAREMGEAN

| SMILES | IC50 [1] [µM] | phosphorylation by HSV-TK (in words) [2] | phosphorylation by deoxyguanosine kinase (in words) [3] | IC50 [4] [µM] | phosphorylation by the enzyme (in words) [5] |
| --- | --- | --- | --- | --- | --- |
| Nc1ccn(C2CSC(CO)O2)c(=O)n1 (stereo not shown) [3TC] | > 1000 | cannot phosphorylate | does not phosphorylate |  |  |
| Nc1nc(Cl)nc2c1ncn2[C@H]1C[C@H](O)[C@@H](CO)O1 [CdA, 2-chloro-2′-deoxyadenosine] |  | cannot phosphorylate |  | > 1000 |  |
| Nc1ccn([C@H]2CC[C@@H](CO)O2)c(=O)n1 [ddC, 2′,3′-dideoxycytidine] |  | cannot phosphorylate | does not phosphorylate | > 1000 |  |
| Nc1ccn([C@H]2C[C@H](O)[C@@H](CO)O2)c(=O)n1 [deoxycytidine] |  |  |  |  | efficiently phosphorylated |
| Nc1ccn([C@@H]2O[C@H](CO)[C@@H](O)C2(F)F)c(=O)n1 [dFdC, 2′,2′-difluorodeoxycytidine] |  | cannot phosphorylate | does not phosphorylate | > 1000 |  |
| O=c1[nH]c(=O)n([C@H]2C[C@H](O)[C@@H](CO)O2)cc1F [FdU, 5-fluorodeoxyuridine] |  |  |  | 58 |  |
| Nc1nc2c(ncn2[C@H]2C[C@H](O)[C@@H](CO)O2)c(=O)[nH]1 [deoxyguanosine] |  |  |  |  | efficiently phosphorylated |
| O=c1[nH]c(=O)n([C@@H]2O[C@H](CO)[C@@H](O)[C@@H]2F)cc1I [FIAU, 1-(2-deoxy-2-fluoro-β-D-arabinofuranosyl)-5-iodouracil] |  |  |  | 2 |  |
| O=c1[nH]c(=O)n([C@@H]2O[C@H](CO)[C@@H](O)[C@@H]2O)cc1/C=C/Br [BVaraU, (E)-5-(2-bromovinyl)-1-β-D-arabinofuranosyl-uracil] |  |  | does not phosphorylate | 4 |  |
| Nc1ncnc2c1ncn2[C@H]1C[C@H](O)[C@@H](CO)O1 [deoxyadenosine] |  |  |  |  | efficiently phosphorylated |
| O=c1[nH]c(=O)n([C@H]2C[C@H](O)[C@@H](CO)O2)cc1/C=C/Br [BVDU, (E)-5-(2-bromovinyl)-2′-deoxyuridine] |  |  | does not phosphorylate | 3 |  |
| Nc1ccn([C@@H]2O[C@H](CO)[C@@H](O)[C@@H]2O)c(=O)n1 [AraC, 1-β-D-arabinofuranosylcytosine] |  | cannot phosphorylate |  | > 1000 |  |
